The test system of data set [1] is S. pneumoniae (ATCC 6301). The experiment in a line: S. pneumoniae lung infection in vivo efficacy model (mice). More on the design: species or system Streptococcus pneumoniae. The following applies: 25 mg kg^−1 SC qd, 10 days.
Method: The study objective was to evaluate the antimicrobial activity of test articles in a lung infection model with S. pneumoniae (ATCC® 6301™). Male ICR mice were inoculated intratracheally (IT) with S. pneumoniae at an inoculum size of 2.96 × 10^6 CFU per mouse (20 µL per mouse). […] The reference standard, vancomycin 1, was dosed at 25 mg kg^−1 qd SC at 2 h after IT inoculation. […] An increase in survival rate of 50 percent or more ( ≥ 50%) of the treated animals relative to the vehicle group indicates significant antimicrobial activity.
Test substances at 25 mg kg^−1 were each administered subcutaneously (SC) to test animals 2 h after inoculation. The dosing volume was 10 mL kg^−1.
Vehicle (10 mL kg^−1), vancomycin and test substances at 25 mg kg^−1 were each administered subcutaneously 2 h post-infection. Mortality was recorded daily for 10 days following inoculation. Increase of 50 percent or more (≥ 50%) in survival rate relative to the vehicle control group indicates significant anti-infective activity.
Data set [2] relates to S. aureus ATCC 43300 (MRSA). The experiment in a line: Time kill assay. In kind it is cell-based, Staphylococcus aureus. How it is done:
S. aureus ATCC® 43300™ (MRSA) was cultured in MHB (BactoLaboratories, Cat. No 211443) at 37 °C overnight. A sample was then diluted 40-fold in fresh MHB and incubated at 37 °C for 2–3 h until the culture reached early exponential phase (OD600 of 0.2–0.4). Vancapticin 24 ([…] and 0.003 µg mL^−1) and vancomycin (4, 2, 1 and 0.5 µg mL^−1) were serially diluted twofold across the wells of 96-well microtitre plates (NBS, Corning 3641) with a final volume of 50 µL, then combined with 50 µL of bacterial inoculum (giving a final cell density of 5 × 10^5 CFU mL^−1) and incubated at 37 °C. Serial dilutions of the cultures were plated at each desired time point, using a multichannel pipette as follows: in row A of a 96-well plate, 50 µL of sterile activated charcoal suspension (25 mg mL^−1) was added, while 90 µL of 0.9% sterile saline per well was added to the other rows. At selected time-points, 50 µL aliquots were transferred from the time-kill assay plate to the first row containing the charcoal suspension and mixed well. […] The colonies in each spot were counted and used to calculate the number of viable CFU mL^−1 remaining in the original culture by considering the dilution factors (1:2 in charcoal, the serial dilution factor and the volume of the aliquot spotted).

A further data set deals with MRSA. Conditions: MRSA in 50% human serum / 50% MHB. Here is the method: The compounds, along with standard antibiotics were serially diluted twofold across the wells of 96-well non-binding surface (NBS) polystyrene plates (Corning 3641). […] Standards ranged from 64 to 0.03 µg mL^−1 and compounds from 8 to 0.003 µg mL^−1 with final assay volumes of 100 µL per well. Gram-positive bacteria were cultured in Mueller Hinton broth (MHB) (Bactolaboratories, Cat. no. 211443) at 37 °C overnight. A sample of each culture was then diluted 40-fold in fresh MHB and incubated at 37 °C for 2–3 h. […] All the plates were covered and incubated at 37 °C for 24 h. MICs were the lowest concentration showing no visible growth.
The compounds, along with standard antibiotics, tested in BMD-MIC assay as above, in the presence of a mixture of 50% human serum (Sigma-Aldrich) and 50% MHB.

A short description of data set [3]: Critical micelle concentration assay. The following applies: 0.2 M NaCl, DPH. In kind it is physicochemical. How it is done:
CMCs were determined as previously described[46] with a higher throughput modification. Briefly, a cascade dilution of each antibiotic was performed in a low binding polypropylene V-bottom shaped 96-well plates in the presence of 0.2 M NaCl solution across 12 concentrations ranging from 1000 to 0.1 μM, except the control melittin (100 to 0.01 μM). An identical cascade dilution was performed for the neutral detergent Triton X-100 and the anionic detergent sodium dodecyl sulphate (SDS) starting from 0.1% down to 0.00001% (vol:vol for Triton X-100 and wt:vol for SDS). An aliquot of […] (DPH) in DMSO was added in each well to yield the final DPH concentration of 5 μM. The reaction mixtures were mixed for 30 s and transferred in horizontal triplicate (25 μL per well) into a black falcon 384-well plate. The 384-well plate was then sealed, wrapped up in aluminium foil and incubated for 30 min at room temperature. The fluorescence intensity was monitored in real time using a BMG Labtech PolarStar Omega multimode reader fitted with 360-10 and 430-10 excitation and emission filters respectively, at an excitation wavelength of 360 nm and an emission wavelength of 430 nm.

The test system of data set [4] is cell-free particulate fraction of Bacillus megaterium KM (ATCC 13632). The experiment in a line: Cell-free peptidoglycan inhibition assay. In kind it is biochemical. Conditions: cell free radiolabelled synthesis assay. How it is done: The cell-free particulate fraction of Bacillus megaterium KM (ATCC®13632™) was used to catalyse the polymerisation of peptidoglycan from UPD-linked precursors in vitro following literature procedures. B. megaterium was grown in the medium containing 1% (w/v) tryptone (Difco-Bacto), 0.5% (w/v) yeast extract (Difco-Bacto), 0.25% (w/v) K2HPO4 and 0.5% (w/v) glucose with pH 7.2. Bacteria were harvested when the density had reached to 0.4 mg dry weight mL^−1 and washed in the buffer 0.05 M Tris-HCl (pH 7.8) containing 10 mM MgCl2 by centrifugation at 6000 × g for 10 min at 4 °C. All subsequent manipulations were carried out on ice. The bacteria were resuspended in the same buffer at a density of 50 mg dry weight mL^−1, and then subjected to three freeze/thaw cycles. Bacteria were then homogenised by using a glass homogeniser at 4 °C (2 × 10 min). The broken cell suspension was centrifuged at 6000 × g for 10 min at 4 °C. […] Integrated density value (IDV) of each band on silica gel was analysed using AlphaEase FC software (AlphaImager 2200). The change of peptidoglycan or Lipid II were calculated as percent from the IDV values of the control (without any antibiotic or compound).

In brackets after ≈: the same amount, converted by molar mass.

With `CN[C@H](CC(C)C)C(=O)N[C@H]1C(=O)N[C@@H](CC(N)=O)C(=O)N[C@H]2C(=O)N[C@H]3C(=O)N[C@H](C(=O)N[C@H](C(=O)O)c4cc(O)cc(O)c4-c4cc3ccc4O)[C@H](O)c3ccc(c(Cl)c3)Oc3cc2cc(c3O[C@@H]2O[C@H](CO)[C@@H](O)[C@H](O)[C@H]2O[C@H]2C[C@](C)(N)[C@H](O)[C@H](C)O2)Oc2ccc(cc2Cl)[C@H]1O` [Compound 1, Vancomycin], the “survival rate relative to the vehicle control” value in data set [1] is recorded as not below 50%. Besides, the “Bactericidal profile in time kill assay” value in data set [2] is recorded as “slowly bactericidal”.

As for `CN[C@H]1C(=O)N[C@@H]2Cc3ccc(cc3)Oc3cc4cc(c3O[C@@H]3O[C@H](C(=O)O)[C@@H](O)[C@H](O)[C@H]3NC(=O)CCCCCCCCC(C)C)Oc3ccc(cc3Cl)[C@@H](O)[C@@H]3NC(=O)[C@H](NC(=O)[C@@H]4NC(=O)[C@@H](NC2=O)c2cc(cc(O)c2Cl)Oc2cc1ccc2O)c1ccc(O)c(c1)-c1c(O[C@H]2O[C@H](CO)[C@@H](O)[C@H](O)[C@@H]2O)cc(O)cc1[C@@H](C(=O)NCCCN(C)C)NC3=O` [Compound 3, Dalbavancin], in the data set with MRSA, the “MIC +50% HS” value stood at 8 mg/L (≈ 4.4 µM).

Turning to `CCCCCCCCCCCCCC(=O)N[C@@H](CCCCN)C(=O)N[C@@H](CCCCN)C(=O)N[C@@H](CCCCN)C(=O)N[C@@H](CCCCNC(=O)[C@H]1NC(=O)[C@H]2NC(=O)[C@H](NC(=O)[C@@H]3NC(=O)[C@H](CC(N)=O)NC(=O)[C@H](NC(=O)[C@@H](CC(C)C)NC)[C@H](O)c4ccc(c(Cl)c4)Oc4cc3cc(c4O[C@@H]3O[C@H](CO)[C@@H](O)[C@H](O)[C@H]3O[C@H]3C[C@](C)(N)[C@H](O)[C@H](C)O3)Oc3ccc(cc3Cl)[C@H]2O)c2ccc(O)c(c2)-c2c(O)cc(O)cc21)C(=O)O` [Compound 17, nC13CO-KKK-K(Vancomycin)-OH], the “critical micelle concentration (CMC)” value in data set [3] is given as “exceed 100 µM”. The “Peptidoglycan formation, 14C-GlcNAc incorporation” value in data set [4] was “inhibited peptidoglycan formation”.

(Values after publication PMC5750218, “Protein-inspired antibiotics active against vancomycin- and daptomycin-resistant bacteria” (Nature Communications, 2018).)
